Measurements reported in the NIST ThermoML archive (doi:10.1021/je049610v).
Numbers after ± are expanded uncertainties.

Legend:
[1] = refractive index (Na D-line) (dimensionless); xn = mol fraction of the nth substance listed; conditions: 101 kPa, Liquid
[2] = xn = mol fraction of the nth substance listed; conditions: 101 kPa, Liquid

COc1ccccc1 [anisole] + C1COCCO1
Conditions	mass density, 298.15 K [kg/m3]	mass density, 303.15 K [kg/m3]	mass density, 308.15 K [kg/m3]	refractive index, 298.15 K	refractive index, 303.15 K	refractive index, 308.15 K	speed of sound, 298.15 K [m/s]	viscosity, 298.15 K [mPa·s]	viscosity, 303.15 K [mPa·s]	viscosity, 308.15 K [mPa·s]
[1], x1 = 0.0982	–	–	–	1.432 ± 0.0024	1.4295 ± 0.0024	1.427 ± 0.0024	–	–	–	–
[1], x1 = 0.199	–	–	–	1.4434 ± 0.0024	1.4408 ± 0.0024	1.4383 ± 0.0024	–	–	–	–
[1], x1 = 0.296	–	–	–	1.4538 ± 0.0024	1.4514 ± 0.0024	1.4496 ± 0.0024	–	–	–	–
[1], x1 = 0.398	–	–	–	1.4647 ± 0.0024	1.4628 ± 0.0024	1.4603 ± 0.0024	–	–	–	–
[1], x1 = 0.5046	–	–	–	1.475 ± 0.0024	1.472 ± 0.0024	1.47 ± 0.0024	–	–	–	–
[1], x1 = 0.6044	–	–	–	1.484 ± 0.0024	1.4814 ± 0.0024	1.4789 ± 0.0024	–	–	–	–
[1], x1 = 0.7057	–	–	–	1.4925 ± 0.0024	1.4899 ± 0.0024	1.4872 ± 0.0024	–	–	–	–
[1], x1 = 0.8028	–	–	–	1.5009 ± 0.0024	1.4982 ± 0.0024	1.4956 ± 0.0024	–	–	–	–
[1], x1 = 0.9005	–	–	–	1.5084 ± 0.0024	1.5054 ± 0.0024	1.5025 ± 0.0024	–	–	–	–
[1], x1 = 1	–	–	–	1.5148 ± 0.0024	1.5124 ± 0.0024	1.5092 ± 0.0024	–	–	–	–
[2], x1 = 0.0982	1023.3 ± 2.1	1017.9 ± 2.2	1012.9 ± 2.2	–	–	–	1355 ± 8	1.342 ± 0.042	1.185 ± 0.037	1.028 ± 0.033
[2], x1 = 0.199	1018.4 ± 2.1	1013.2 ± 2.1	1008.2 ± 2.2	–	–	–	1364 ± 8	1.267 ± 0.04	1.128 ± 0.036	0.99 ± 0.032
[2], x1 = 0.296	1014 ± 2.1	1008.6 ± 2.1	1003.9 ± 2.2	–	–	–	1371 ± 8	1.19 ± 0.038	1.074 ± 0.034	0.957 ± 0.031
[2], x1 = 0.398	1009.7 ± 2	1004.6 ± 2.1	999.8 ± 2.2	–	–	–	1378 ± 8	1.12 ± 0.036	1.028 ± 0.033	0.936 ± 0.03
[2], x1 = 0.5046	1005.5 ± 2	1000.6 ± 2.1	995.7 ± 2.2	–	–	–	1385 ± 8	1.072 ± 0.034	0.994 ± 0.032	0.917 ± 0.03
[2], x1 = 0.6044	1001.8 ± 2	996.9 ± 2.1	992.1 ± 2.2	–	–	–	1390 ± 8	1.048 ± 0.034	0.976 ± 0.032	0.904 ± 0.03
[2], x1 = 0.7057	998.3 ± 2	993.5 ± 2.1	988.6 ± 2.2	–	–	–	1396 ± 8	1.042 ± 0.033	0.969 ± 0.031	0.897 ± 0.029
[2], x1 = 0.8028	995.1 ± 2	990.5 ± 2.1	985.4 ± 2.2	–	–	–	1401 ± 8	1.032 ± 0.033	0.957 ± 0.031	0.883 ± 0.029
[2], x1 = 0.9005	991.9 ± 2	987.4 ± 2.1	982.4 ± 2.2	–	–	–	1405 ± 8	1.011 ± 0.033	0.941 ± 0.031	0.87 ± 0.029
[2], x1 = 1	988.9 ± 2	984.1 ± 2.1	979.4 ± 2.1	–	–	–	1410 ± 8	0.992 ± 0.032	0.919 ± 0.03	0.853 ± 0.028

COc1ccccc1 [anisole] + CCOC(=O)C(=O)OCC
x1 = 1
Conditions	mass density, 298.15 K [kg/m3]	mass density, 303.15 K [kg/m3]	mass density, 308.15 K [kg/m3]	refractive index, 298.15 K	refractive index, 303.15 K	refractive index, 308.15 K	speed of sound, 298.15 K [m/s]	viscosity, 298.15 K [mPa·s]	viscosity, 303.15 K [mPa·s]	viscosity, 308.15 K [mPa·s]
[1]	–	–	–	1.5148 ± 0.0024	1.5124 ± 0.0024	1.5092 ± 0.0024	–	–	–	–
[2]	988.9 ± 2	984.1 ± 2.1	979.4 ± 2.1	–	–	–	1410 ± 8	0.992 ± 0.032	0.918 ± 0.03	0.853 ± 0.028

COc1ccccc1 [anisole] + CN(C)C=O
Conditions	mass density, 298.15 K [kg/m3]	mass density, 303.15 K [kg/m3]	mass density, 308.15 K [kg/m3]	refractive index, 298.15 K	refractive index, 303.15 K	refractive index, 308.15 K	speed of sound, 298.15 K [m/s]	viscosity, 298.15 K [mPa·s]	viscosity, 303.15 K [mPa·s]	viscosity, 308.15 K [mPa·s]
[1], x1 = 0.1004	–	–	–	1.4407 ± 0.0024	1.4381 ± 0.0024	1.4356 ± 0.0024	–	–	–	–
[1], x1 = 0.196	–	–	–	1.4513 ± 0.0024	1.4487 ± 0.0024	1.4462 ± 0.0024	–	–	–	–
[1], x1 = 0.2939	–	–	–	1.4614 ± 0.0024	1.4587 ± 0.0024	1.4558 ± 0.0024	–	–	–	–
[1], x1 = 0.3966	–	–	–	1.4708 ± 0.0024	1.4683 ± 0.0024	1.4656 ± 0.0024	–	–	–	–
[1], x1 = 0.4975	–	–	–	1.4798 ± 0.0024	1.4771 ± 0.0024	1.4744 ± 0.0024	–	–	–	–
[1], x1 = 0.5983	–	–	–	1.4878 ± 0.0024	1.4852 ± 0.0024	1.4825 ± 0.0024	–	–	–	–
[1], x1 = 0.6953	–	–	–	1.4953 ± 0.0024	1.4928 ± 0.0024	1.4902 ± 0.0024	–	–	–	–
[1], x1 = 0.7984	–	–	–	1.5024 ± 0.0024	1.5 ± 0.0024	1.4973 ± 0.0024	–	–	–	–
[1], x1 = 0.9042	–	–	–	1.5099 ± 0.0024	1.5071 ± 0.0024	1.5043 ± 0.0024	–	–	–	–
[1], x1 = 1	–	–	–	1.5148 ± 0.0024	1.5124 ± 0.0024	1.5092 ± 0.0024	–	–	–	–
[2], x1 = 0.1004	951 ± 1.9	946.6 ± 1.9	942.3 ± 2	–	–	–	1456 ± 8	0.833 ± 0.027	0.787 ± 0.026	0.739 ± 0.025
[2], x1 = 0.196	957 ± 1.9	952.7 ± 2	948.2 ± 2	–	–	–	1451 ± 8	0.859 ± 0.028	0.81 ± 0.027	0.76 ± 0.025
[2], x1 = 0.2939	962.9 ± 1.9	958.2 ± 2	953.9 ± 2.1	–	–	–	1445 ± 8	0.886 ± 0.029	0.833 ± 0.027	0.78 ± 0.026
[2], x1 = 0.3966	968.5 ± 1.9	964.1 ± 2	959.7 ± 2.1	–	–	–	1438 ± 8	0.912 ± 0.03	0.856 ± 0.028	0.799 ± 0.026
[2], x1 = 0.4975	973.4 ± 1.9	968.8 ± 2	964.4 ± 2.1	–	–	–	1432 ± 8	0.937 ± 0.03	0.878 ± 0.029	0.819 ± 0.027
[2], x1 = 0.5983	977.6 ± 1.9	973.2 ± 2	968.7 ± 2.1	–	–	–	1427 ± 8	0.957 ± 0.031	0.897 ± 0.029	0.836 ± 0.028
[2], x1 = 0.6953	981.2 ± 2	976.9 ± 2	972.4 ± 2.1	–	–	–	1422 ± 8	0.977 ± 0.031	0.913 ± 0.03	0.851 ± 0.028
[2], x1 = 0.7984	984.7 ± 2	980.3 ± 2	975.9 ± 2.1	–	–	–	1418 ± 8	0.994 ± 0.032	0.928 ± 0.03	0.863 ± 0.028
[2], x1 = 0.9042	987.7 ± 2	983.3 ± 2.1	978.5 ± 2.1	–	–	–	1413 ± 8	1.006 ± 0.032	0.938 ± 0.03	0.871 ± 0.029
[2], x1 = 1	988.9 ± 2	984.1 ± 2.1	979.4 ± 2.1	–	–	–	1410 ± 8	0.992 ± 0.032	0.919 ± 0.03	0.853 ± 0.028
